The Kd is the constant that tells how readily two partners part at equilibrium.

The target of this experiment is Rae1_31-368-Nup98_157-213 heterodimer (Rae1-Nup98 complex) (Homo sapiens, UniProt P52948+P78406). In words: biochemical. The experiment is classed as binding.
Chain of Rae1_31-368-Nup98_157-213 heterodimer (Rae1-Nup98 complex) (P78406 31-368 limits assumed): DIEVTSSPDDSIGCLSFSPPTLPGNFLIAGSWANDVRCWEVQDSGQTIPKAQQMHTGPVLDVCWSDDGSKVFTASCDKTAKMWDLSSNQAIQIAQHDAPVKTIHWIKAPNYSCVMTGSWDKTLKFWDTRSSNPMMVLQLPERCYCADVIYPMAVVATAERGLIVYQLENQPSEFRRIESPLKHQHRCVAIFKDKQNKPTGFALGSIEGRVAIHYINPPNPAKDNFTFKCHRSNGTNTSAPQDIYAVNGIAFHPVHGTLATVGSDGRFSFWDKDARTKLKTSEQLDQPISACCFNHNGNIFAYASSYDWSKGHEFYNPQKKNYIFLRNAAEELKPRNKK
Chain of Rae1_31-368-Nup98_157-213 heterodimer (Rae1-Nup98 complex) (P52948 157-213 partner limits assumed): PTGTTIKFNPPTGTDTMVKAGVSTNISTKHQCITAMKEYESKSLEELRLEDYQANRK

In the case of `CSCC[C@H](NC(=O)[C@H](CCC(=O)O)NC(=O)[C@@H](N)CC(=O)O)C(=O)N[C@@H](CC(=O)O)C(=O)N[C@H](C(=O)N[C@@H](Cc1c[nH]cn1)C(=O)N[C@@H](CC(=O)O)C(=O)N1CCC[C@H]1C(=O)N[C@@H](CC(N)=O)C(=O)N[C@@H](CCC(N)=O)C(=O)N[C@@H](CC(C)C)C(=O)N[C@@H](CCCNC(=N)N)C(=O)N[C@@H](Cc1ccc(O)cc1)C(=O)O)[C@@H](C)O` [VSV M NTE], the Kd was 117 µM.

The values above are taken from publication PMC9376891 (Nature Communications, 2022).
